T1: FadD (Escherichia coli, UniProt P69451)
T1 construct: full-length, C-terminal His6 tag kept, pETDuet-1 (TJF032), expressed in E. coli BL21*(DE3) delta-fadD, partially purified by Ni-NTA
T1 sequence (P69451 1-561): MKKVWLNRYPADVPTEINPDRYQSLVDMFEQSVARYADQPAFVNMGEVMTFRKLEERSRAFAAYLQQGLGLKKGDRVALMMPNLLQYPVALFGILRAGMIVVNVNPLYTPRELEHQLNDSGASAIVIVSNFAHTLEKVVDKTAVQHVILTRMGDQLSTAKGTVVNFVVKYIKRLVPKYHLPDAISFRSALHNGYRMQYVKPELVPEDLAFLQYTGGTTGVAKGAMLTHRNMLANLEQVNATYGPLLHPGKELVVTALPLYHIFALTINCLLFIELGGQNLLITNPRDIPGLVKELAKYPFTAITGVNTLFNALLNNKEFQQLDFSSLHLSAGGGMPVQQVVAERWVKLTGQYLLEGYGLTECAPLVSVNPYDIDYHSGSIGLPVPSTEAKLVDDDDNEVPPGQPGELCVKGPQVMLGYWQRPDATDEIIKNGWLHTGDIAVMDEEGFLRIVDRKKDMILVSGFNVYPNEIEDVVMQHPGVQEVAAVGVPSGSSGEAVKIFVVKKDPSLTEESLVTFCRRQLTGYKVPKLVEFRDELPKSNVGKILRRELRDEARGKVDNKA

B1: FadD (Escherichia coli K-12) (protein)
chain: T1 sequence (P69451 1-561)

Assays:
FadD = molecular target: T1, FadD; experiment: coupled AMP production assay (myokinase / pyruvate kinase / lactate dehydrogenase, NADH oxidation at […] nm); type: biochemical; conditions: 2.5 mM ATP, 0.5 mM CoA, 8 mM MgCl2, 0.1% Triton X-100, pH 7.5, 30 °C; partially purified
purified protein = substrate: CCCCCCCC(=O)O; experiment: purified protein; conditions: 2.5 mM ATP, 0.5 mM CoA, 8 mM MgCl2, 0.1% Triton X-100, pH 7.5, 30 °C, partially purified

Row | Molecule | Km (FadD) | Km (purified protein) [µM]
1 | CCCCCCCC/C=C\CCCCCCCC(=O)O [oleate] | Vmax (A) and Km (B) values for the indicated substrates | –
2 | B1 | – | 422

Reference: paper PMC4493641, “Enhancement of E. coli acyl-CoA synthetase FadD activity on medium chain fatty acids” (PeerJ, 2015)
